Columns and labels:
[1] = test system: healthy male volunteers; experiment: Example 5: drug interaction study of Compound (I) with short-acting nitrates (hemodynamic effects); assay type: in vivo, human
Experimental: On the sixth or seventh day, the subjects received sublingual nitroglycerin (0.4 mg) while supine on a tilt table. […] The subjects were tilted to 70° head-up every 5 minutes for a total of 30 minutes with measurement of blood pressure and heart rate. There were no discontinuations among the twenty-two healthy male subjects (ages 19 to 60 years old) that entered this study.

[2] = test system: patients in need thereof; experiment: Example 6: two randomized, double-blinded placebo controlled studies, daily and on demand dosing; assay type: in vivo, human
Experimental: In two randomized, double-blinded placebo controlled studies, Compound (I) was administered to patients in need thereof at a range of doses, in both daily dosing and for on demand therapy, for sexual encounters and intercourse in the home setting.
Enhanced erectile function was determined by the International Index of Erectile Function (IIEF) (Rosen et al., Urology, 49, pp. 822-830 (1997)), diaries of sexual attempts, and a global satisfaction question.

[3] = test system: patients with male erectile dysfunction; experiment: Example 7: placebo-controlled on demand study in male erectile dysfunction (IIEF, SEP, safety); assay type: in vivo, human; details: for patients who rated ability to maintain an erection (IIEF Question 4) as almost always or always: at endpoint
Experimental: A third clinical study was a randomized, double-blind, placebo-controlled study of Compound (I) administered “on demand” to patients with male erectile dysfunction. Compound (I) was administered over a period of eight weeks in the treatment of male erectile dysfunction (ED). Erectile dysfunction (ED) is defined as the persistent inability to attain and/or maintain an erection adequate to permit satisfactory sexual performance.
The study population consisted of 212 men, at least 18 years of age, with mild to severe erectile dysfunction. […] Treatment with all nitrates, azole antifungals (e.g., ketoconazole or itraconazole), warfarin, erythromycin, or antiandrogens was not allowed at any time during the study. No other approved or experimental medications, treatments, or devices used to treat ED were allowed. Forty-one subjects were administered a placebo.
The two primary efficacy variables were the ability of a subject to penetrate their partner and their ability to maintain an erection during intercourse, as measured by the International Index of Erectile Function (IIEF). The IIEF Questionnaire contains fifteen questions, and is a brief, reliable measure of erectile function. See R. C. Rosen et al., Urology, 49, pp. 822-830 (1997)
Secondary efficacy variables were IIEF domain scores for erectile function, orgasmic function, sexual desire, intercourse satisfaction, and overall satisfaction; the patient's ability to achieve an erection, ability to insert their penis into their partner's vagina, completion of intercourse with ejaculation, satisfaction with the hardness of their erection, and overall satisfaction, all as measured by the Sexual Encounter Profile (SEP) diary; and a global assessment question asked at the end of the treatment period. […]
The safety aspect of the study included all enrolled subjects, and was assessed by evaluating all reported adverse events, and changes in clinical laboratory values, vital signs, physical examination results, and electrocardiogram results.

[4] = test system: PDEl; details: package insert; cited from earlier work
[5] = test system: patients taking organic nitrates; details: combination with organic nitrates; cited from earlier work
[6] = 10 mg daily for seven days, sublingual nitroglycerin 0.4 mg

SMILES: CN1CC(=O)N2[C@H](c3ccc4c(c3)OCO4)c3[nH]c4ccccc4c3C[C@@H]2C1=O [Compound (I), (6R,12aR)-2,3,6,7,12,12a-hexahydro-2-methyl-6-(3,4-methylenedioxyphenyl)-pyrazino[2′,1′:6,1]pyrido[3,4-b]indole-1,4-dione]
- changes in laboratory safety assessments or 12-lead ECGs ([1]; 10 mg daily for seven days): no Compound (I) changes
- effect on mean maximal nitroglycerin-induced decrease in systolic blood pressure [1, 6]: minimal, if any, effect
- effect on mean systolic blood pressure [1, 6]: minimal, if any, effect
- impact on systolic blood pressure ([1]; administered in conjunction with organic nitrates, human clinical studies): minimal impact
- efficacy for sexual encounters and intercourse ([2]; 10 mg dose): fully efficacious
- side effects ([2]; 10 mg dose): minimal side effects
- efficacy for sexual encounters and intercourse ([2]; doses from 5 to 20 mg): efficacious
- flushing ([2]; doses from 5 to 20 mg): less than 1%
- percentage of successful intercourse attempts including ability to attain and maintain an erection ([2]; on demand and daily dosing regimens): significantly improved
- patients who rated ability to maintain an erection (IIEF Question 4) as almost always or always ([3]; 10 mg on demand): 39.0%
- patients who rated ability to maintain an erection (IIEF Question 4) as almost always or always ([3]; 25 mg on demand): 69.0%
- incidence of treatment-emergent adverse events ([3]; 2 to 25 mg on demand): appeared related to dose

SMILES: CCCc1nn(C)c2c(=O)[nH]c(-c3cc(S(=O)(=O)N4CCN(C)CC4)ccc3OCC)nc12 [sildenafil]
- more potent inhibitor of PDE5 than PDE1 [4]: greater than 80 fold
- blood pressure effect in patients taking organic nitrates [5]: clinically significant drop in blood pressure
